Measured values reported in patent publication US11352400B2, “PI3K gamma inhibitor peptide for treatment of respiratory system diseases” (Kither Biotech S.r.I., priority 2014, dated 2022).

Tested on: β2-AR/cAMP signaling
Assay: FRET imaging of cAMP (ICUE3 probe) in hBSMCs after β2-AR stimulation
Assay type: cell-based, human
Conditions: hBSMCs pre-treated 50 μM, 30 minutes; ISO 100 nM + CGP-20712A 100 nM
Experimental: Human bronchial smooth muscle cells (hBSMCs) were transfected with a plasmid encoding the FRET probe for cAMP, ICUE3 (described in the U.S. Pat. No. 8,236,523 B2) (2), by electroporation with a Nucleofector device (AMAXA, Gaithersburg, Md.), according to the manufacturer's protocol. Briefly, 1×10^6 cells were re-suspended in 100 μL of nucleofection solution (VPI-1004, AMAXA, Gaithersburg, Md.), mixed with 1 μg of pcDNA3-ICUE3 (described in U.S. Pat. No. 8,236,523 B2), and subjected to electroporation in a nucleofection apparatus of Amaxa Biosystems (Program A-033). Live cell imaging experiments were performed at 24 hours after transfection.
Measurements of cAMP levels were performed on human bronchial smooth muscle cells (hBSMCs) that express the FRET probe ICUE3, as described previously (2). Briefly, cells were maintained in a K^+-Ringer solution containing (in mmol/L) 121.6 NaCl, 5.4 KCl, 1.8 MgCl2, 1.8 CaCl2, 4 NaHCO3, 0.8 NaH2PO4, 5 D-glucose, 5 sodium pyruvate, 10 HEPES, at pH 7.4. […] FRET efficiency was calculated using the “Method 3” provided by the Leica wizard application for FRET imaging and sensitized emission, according to which: EA(i)=B/A, where EA(i) is the apparent FRET efficiency; A and B are the intensities of the CFP channel and FRET, respectively. […]

With “RQIKIWFQNRRMKWKKGKATHRSPGQIHLVQRHPPSEESQAF (fusion peptide comprising SEQ ID No.1 and SEQ ID No.3) [Trojan peptide derived from PI3Kγ]” the “increase of cAMP accumulation following stimulation of β2-ARs” value was 35%.
